# According to patent US11253634B2, “Cationic steroidal antibiotic compositions for the treatment of dermal tissue” (BRIGHAM YOUNG UNIVERSITY, priority 2016, dated 2022):
# Columns and labels:
# [1] = Solubility of CSA-131 salt in cyanoacrylate; format: physicochemical
# Description: CSA-131 (bis-DNS salt) was used in this Example. This material is a stable, colorless solid and is insoluble in cyanoacrylate. To ensure uniform distribution of CSA-131 in the cyanoacrylate polymer, the solid was micronized using a jet mill to give an average particle size of 200 nm. The resulting powder was added to cyanoacrylate to give a 5% (w/w) mixture, which was vigorously agitated. No immediate change in viscosity was observed, and the mixture remained non-viscous for more than 15 min.
# IL-6 = assay: Kidney IL-6 levels in P. aeruginosa pneumonia model; format: in vivo, C57/BL6 mice; details: 24 hours post-infection
# Excerpt: IL-6 is a marker of systemic inflammation. Female C57/BL6 mice were infected in the respiratory tract with a non-lethal dose of P. aeruginosa as a model of pneumonia.
# primary human MSC cells = assay: Gene expression (q-PCR, inflammation-related mRNA panel) after CSA treatment of primary cells; format: cell-based; details: 8 hours treatment, CSA-13 at 5.0 μM; for Fold Regulation, IL1A: gene IL1A (Interleukin-1 alpha); for Fold Regulation, IL1A / Fold Regulation, IL1B / Fold Regulation, IRAK2 / Fold Regulation, NFKBIA / Fold Regulation, TLR2 / Fold Regulation, TLR4 / Fold Regulation, TLR6 / Fold Regulation, TLR8 / Fold Regulation, TLR9 / Fold Regulation, TNF / Fold Regulation, TNFRSF1A: q-PCR; for Fold Regulation, IL1B: gene IL1B (Interleukin-1 beta); for Fold Regulation, IRAK2: gene IRAK2 (Interleukin-1 receptor-associated kinase 2); for Fold Regulation, NFKB1: gene NFKB1, q-PCR; for Fold Regulation, NFKB2: gene NFKB2, q-PCR; for Fold Regulation, NFKBIA: gene NFKBIA; for Fold Regulation, TLR2: gene TLR2 (Toll-like receptor 2); for Fold Regulation, TLR4: gene TLR4 (Toll-like receptor 4); for Fold Regulation, TLR6: gene TLR6 (Toll-like receptor 6); for Fold Regulation, TLR8: gene TLR8 (Toll-like receptor 8); for Fold Regulation, TLR9: gene TLR9 (Toll-like receptor 9); for Fold Regulation, TNF: gene TNF (Tumor necrosis factor); for Fold Regulation, TNFRSF1A: gene TNFRSF1A
# Pseudomonas aeruginosa = assay: MIC/MBC against mixed-species biofilms: P. aeruginosa; format: cell-based; details: mixed-species biofilms grown 22 hours, 20 hours of treatment
# Description: (§1) Several CSA compounds were tested against Pseudomonas aeruginosa and Staphylococcus aureus mixed-species biofilms grown for an initial 22 hours and subjected to 20 hours of treatment.
# Staphylococcus aureus = assay: MIC/MBC against mixed-species biofilms: S. aureus; format: cell-based; details: mixed-species biofilms grown 22 hours, 20 hours of treatment
# Description: as §1
# [2] = tested on: 74 clinical isolates (All); assay: Broth microdilution susceptibility testing, all clinical isolates; format: cell-based; details: All (74) isolates; no unit in column head (MIC levels of table in μg/ml)
# Description: (§2) CSA-131 was tested in vitro against a set of clinical isolates representing bacterial species commonly associated with hospital-acquired infections. Antimicrobial susceptibility testing for 74 clinical isolates was performed.
# [3] = tested on: Staphylococcus aureus (10); assay: Broth microdilution susceptibility testing, S. aureus isolates; format: cell-based; details: unit inferred, unit assumed
# Description: as §2
# [4] = tested on: Streptococcus Pneumoniae (10); assay: Broth microdilution susceptibility testing, S. pneumoniae isolates; format: cell-based; details: unit inferred, unit assumed
# Description: as §2
# Haemophilus spp. (10) = assay: Broth microdilution susceptibility testing, Haemophilus spp. isolates; format: cell-based, H. influenza and H. parainfluenzae; details: unit inferred, unit assumed
# Description: as §2
# Enterobacteriaceae (22) = assay: Broth microdilution susceptibility testing, Enterobacteriaceae isolates; format: cell-based; details: unit inferred, unit assumed
# Description: as §2
# Non-fermenters (22) = assay: Broth microdilution susceptibility testing, non-fermenter isolates; format: cell-based, A. baumannii species complex, P. aeruginosa, S. maltophilia; details: unit inferred, unit assumed
# Description: as §2
structure (smiles),measurement,setting,value
CCCCCCCCCCCCNCCCC(C)C1CCC2C3C(OCCCN)CC4CC(OCCCN)CCC4(C)C3CC(OCCCN)C12C.O=S(=O)(O)c1cccc2c(S(=O)(=O)O)cccc12.O=S(=O)(O)c1cccc2c(S(=O)(=O)O)cccc12 (centres unmarked) [CSA-131 (bis-DNS salt)],Solubility in cyanoacrylate,[1],insoluble
CCCCCCCCNCCC[C@@H](C)[C@H]1CC[C@H]2[C@@H]3[C@H](OCCCN)C[C@@H]4C[C@H](OCCCN)CC[C@]4(C)[C@H]3C[C@H](OCCCN)[C@]12C [CSA-13],Effect of treatment on kidney IL-6 levels,IL-6,significantly reduced
CCCCCN(CCCCC)CCCC(C)C1CCC2C3C(OCCCN)CC4CC(OCCCN)CCC4(C)C3CC(OCCCN)C12C.Cl.Cl.Cl.Cl (centres unmarked) [CSA-90],"Fold Regulation, IL1A",primary human MSC cells,−6.96 fold
same,"Fold Regulation, IL1B",primary human MSC cells,−3.6734 fold
same,"Fold Regulation, IRAK2",primary human MSC cells,−52.0069 fold
same,"Fold Regulation, NFKB1",primary human MSC cells,−4.718 fold
same,"Fold Regulation, NFKB2",primary human MSC cells,−2.5474 fold
same,"Fold Regulation, NFKBIA",primary human MSC cells,−26.0352 fold
same,"Fold Regulation, TLR2",primary human MSC cells,−13.6933 fold
same,"Fold Regulation, TLR4",primary human MSC cells,−3.4278 fold
same,"Fold Regulation, TLR6",primary human MSC cells,−2.0885 fold
same,"Fold Regulation, TLR8",primary human MSC cells,−4.1972 fold
same,"Fold Regulation, TLR9",primary human MSC cells,−1.8613 fold
same,"Fold Regulation, TNF",primary human MSC cells,−4.8514 fold
same,"Fold Regulation, TNFRSF1A",primary human MSC cells,−7.3196 fold
same,MBC P. aeruginosa,Pseudomonas aeruginosa,6.25 µg/mL
same,MIC P. aeruginosa,Pseudomonas aeruginosa,6.25 µg/mL
same,MBC S. aureus,Staphylococcus aureus,1.56 µg/mL
same,MIC S. aureus,Staphylococcus aureus,1.56 µg/mL
CCCCCCCCCCOC(=O)CC[C@@H](C)[C@H]1CC[C@H]2[C@@H]3[C@H](OC(=O)CCN)C[C@@H]4C[C@H](OC(=O)CCN)CC[C@]4(C)[C@H]3C[C@H](OC(=O)CCN)[C@]12C [CSA-144],MBC P. aeruginosa,Pseudomonas aeruginosa,50 µg/mL
same,MIC P. aeruginosa,Pseudomonas aeruginosa,12.5 µg/mL
same,MBC S. aureus,Staphylococcus aureus,3.125 µg/mL
same,MIC S. aureus,Staphylococcus aureus,3.125 µg/mL
CC(CCCO)C1CCC2C3C(OCCCN)CC4CC(OCCCN)CCC4(C)C3CC(OCCCN)C12C.Cl.Cl.Cl (centres unmarked) [CSA-8],MBC P. aeruginosa,Pseudomonas aeruginosa,100 µg/mL
same,MIC P. aeruginosa,Pseudomonas aeruginosa,25 µg/mL
same,MBC S. aureus,Staphylococcus aureus,6.25 µg/mL
same,MIC S. aureus,Staphylococcus aureus,3.125 µg/mL
CC(CCCNCCCNCCCN)C1CCC2C3C(OCCCN)CC4CC(OCCCN)CCC4(C)C3CC(OCCCN)C12C.Cl.Cl.Cl.Cl.Cl.Cl (centres unmarked) [CSA-54],MBC P. aeruginosa,Pseudomonas aeruginosa,100 µg/mL
same,MIC P. aeruginosa,Pseudomonas aeruginosa,50 µg/mL
same,MBC S. aureus,Staphylococcus aureus,25 µg/mL
same,MIC S. aureus,Staphylococcus aureus,6.25 µg/mL
CC(O)C1CCC2C3C(OCCCN)CC4CC(OCCCN)CCC4(C)C3CC(OCCCN)C12C.Cl.Cl.Cl (centres unmarked) [CSA-11],MBC P. aeruginosa,Pseudomonas aeruginosa,>200 µg/mL
same,MIC P. aeruginosa,Pseudomonas aeruginosa,>200 µg/mL
same,MBC S. aureus,Staphylococcus aureus,50 µg/mL
same,MIC S. aureus,Staphylococcus aureus,50 µg/mL
CCCCCCCCCOC(=O)CC[C@@H](C)[C@H]1CC[C@H]2[C@@H]3[C@H](OC(=O)CCN)C[C@@H]4C[C@H](OC(=O)CCN)CC[C@]4(C)[C@H]3C[C@H](OC(=O)CCN)[C@]12C [CSA-145],MBC P. aeruginosa,Pseudomonas aeruginosa,50 µg/mL
same,MIC P. aeruginosa,Pseudomonas aeruginosa,12.5 µg/mL
same,MBC S. aureus,Staphylococcus aureus,3.125 µg/mL
same,MIC S. aureus,Staphylococcus aureus,3.125 µg/mL
CCCCCCCCOC(=O)CC[C@@H](C)[C@H]1CC[C@H]2[C@@H]3[C@H](OC(=O)CCN)C[C@@H]4C[C@H](OC(=O)CCN)CC[C@]4(C)[C@H]3C[C@H](OC(=O)CCN)[C@]12C [CSA-44],"Fold Regulation, IL1A",primary human MSC cells,−6.0325 fold
same,"Fold Regulation, IL1B",primary human MSC cells,−28.5329 fold
same,"Fold Regulation, IRAK2",primary human MSC cells,−31.8021 fold
same,"Fold Regulation, NFKB1",primary human MSC cells,−3.2891 fold
same,"Fold Regulation, NFKB2",primary human MSC cells,−2.2766 fold
same,"Fold Regulation, NFKBIA",primary human MSC cells,−52.206 fold
same,"Fold Regulation, TLR2",primary human MSC cells,−15.7179 fold
same,"Fold Regulation, TLR4",primary human MSC cells,−2.977 fold
same,"Fold Regulation, TLR6",primary human MSC cells,−2.392 fold
same,"Fold Regulation, TLR8",primary human MSC cells,−8.2256 fold
same,"Fold Regulation, TLR9",primary human MSC cells,−1.8905 fold
same,"Fold Regulation, TNF",primary human MSC cells,−25.9588 fold
same,"Fold Regulation, TNFRSF1A",primary human MSC cells,−2.2461 fold
CCCCCCCCCCCCCNCCC[C@@H](C)[C@H]1CC[C@H]2[C@@H]3[C@H](OCCCN)C[C@@H]4C[C@H](OCCCN)CC[C@]4(C)[C@H]3C[C@H](OCCCN)[C@]12C [CSA-138],MBC P. aeruginosa,Pseudomonas aeruginosa,6.25 µg/mL
same,MIC P. aeruginosa,Pseudomonas aeruginosa,3.125 µg/mL
same,MBC S. aureus,Staphylococcus aureus,3.125 µg/mL
same,MIC S. aureus,Staphylococcus aureus,1.56 µg/mL
CCCCCCCCCCCCNCCC[C@@H](C)[C@H]1CC[C@H]2[C@@H]3[C@H](OCCCN)C[C@@H]4C[C@H](OCCCN)CC[C@]4(C)[C@H]3C[C@H](OCCCN)[C@]12C.Cl.Cl.Cl.Cl [CSA-131],MIC50,[2],4
same,MIC90,[2],8
same,MIC50,[3],2 µg/mL
same,MIC90,[3],2 µg/mL
same,MIC50,[4],4 µg/mL
same,MIC90,[4],4 µg/mL
same,MIC50,Haemophilus spp. (10),8 µg/mL
same,MIC90,Haemophilus spp. (10),8 µg/mL
same,MIC50,Enterobacteriaceae (22),4 µg/mL
same,MIC90,Enterobacteriaceae (22),4 µg/mL
same,MIC50,Non-fermenters (22),4 µg/mL
same,MIC90,Non-fermenters (22),4 µg/mL
